From article PMC9737537, “In Vitro Susceptibility of HIV Isolates with High Growth Capability to Antiretroviral Drugs” (International Journal of Molecular Sciences, 2022) come the findings set out here.

SMILES strings stand for the structures. Read-outs that look alike come from different tables or passages of the source.

What all share (type): cell-based
Assay [1] concerns HIV isolates with high growth capability. Kind of assay: Antiretroviral drug response (HIV-RNA copies in PHA-PBMC culture, 7 days), pooled HIV isolates. Conditions: for suppression of viral yield in vitro: HIV isolates of Figure 5; for susceptibility of isolates / IC90 values relative to Cmin / Cmax: higher growth capability, without any known drug resistance-related mutation. The text has this:
(§1) The following nucleotide reverse transcriptase inhibitors were used: emtricitabine (Tokyo Chemical Industry, Tokyo, Japan), lamivudine (Tokyo Chemical Industry, Japan), tenofovir (Selleck Biotech, Tokyo Japan), tenofovir alafenamide (Selleck Biotech, Japan), tenofovir disoproxil fumarate (Tokyo Chemical Industry, Japan), and zidovudine (FUJIFILM Wako, Tokyo, Japan). As it was reported that tenofovir and its prodrugs (tenofovir disoproxil fumarate and tenofovir alafenamide) are measurable in plasma, the antiviral activity of these three synthetic drugs were assessed in vitro [25, 36]. In addition, one non-nucleotide reverse transcriptase inhibitor, efavirenz (Tokyo Chemical Industry, Japan); two protease inhibitors, atazanavir (Selleck Biotech, Japan) and lopinavir (Funakoshi Frontiers in Life Science, Tokyo, Japan); and four integrase inhibitors, bictegravir (Selleck Biotech, Japan), dolutegravir (Selleck Biotech, Japan), elvitegravir (EVG, Selleck Biotech, Japan), and raltegravir (Selleck Biotech, Japan) were analyzed. Representative HIV isolates and a laboratory strain of HIVpNL4-3 were screened for antiretroviral drugs. Briefly, PHA-PBMCs (1.5 × 10^6 cells) were pelleted at 1000 g for 5 min, resuspended with an HIV preparation (10^6 copies) in 100 µL volume, and incubated at 37 °C for 1 h. To remove unbound and non-infectious viruses, the cells were washed twice with RPMI1640 medium and then cultured in different concentrations of antiretroviral compounds (1 mL). The culture was carried out for 7 days, as described above, for growth capability assessment. All procedures were performed in triplicate.
To determine the susceptibility of HIV isolates with high growth capability to synthetic antiretroviral compounds, we used the in vitro susceptibility of the virus (IC90) and pharmacokinetics of an antiretroviral agent (compared to reported Cmin and Cmax).
HIV-RNA in the culture medium (140 µL) was extracted using a QIAamp Viral RNA Mini Kit (QIAGEN KK-Japan, Tokyo, Japan) and subjected to quantitative reverse transcription polymerase chain reaction (qRT-PCR). The amount of HIV-RNA was assayed using a Luna Universal One-Step qRT–PCR kit (New England Biolabs Japan, Tokyo, Japan) and forward (GagB-1F, 5′-[…]-3′, HXB2 position: 1359–1388) and reverse (GagB-1R, 5′-[…]-3′, 1500–1474) primers. The PCR signal was assessed by comparison with a standard curve (encompassing 10^2–10^8 copies/reaction of the in vitro-transcribed RNA transcripts).
The IC50 was calculated using a nonlinear regression curve fit of the dose response curves of each transformed drug concentration and normalized viral load (copies/mL) using GraphPad Prism software (version 8.0). The IC90 was determine using the IC50 and Hill slope factor from the curve fit in the online GraphPad calculator (https://www.graphpad.com/quickcalcs/ECanything1/, accessed on 1 October 2022) for effective concentration. The results are expressed as the mean IC90 of three values obtained in triplicate for each isolate.

The next assay concerns HIV isolate DR1606-479. Kind of assay: Antiretroviral drug response in PHA-PBMC culture, isolate DR1606-479. Conditions: Human immunodeficiency virus 1, 168 h, isolate with drug resistance-related mutation, 7 days. How it is done:
as §1, with “The activity of 13 synthetic antiretroviral compounds at concentrations ranging from 0.001 to 20 μM was evaluated against HIV isolates with diverse growth capabilities and without any known drug resistance-related mutation. The” for “The”, “Briefly, PHA-PBMCs (1.5 × 10^6 cells) were pelleted at 1000 g for 5 min, resuspended with an HIV preparation (10^6 copies) in 100 µL volume, and incubated at 37 °C for 1 h. To remove unbound and non-infectious viruses, the cells were washed twice with RPMI1640 medium and then cultured in different concentrations of antiretroviral compounds (1 mL). The culture was carried out for 7 days, as described above, for growth capability assessment. All procedures were performed in triplicate.” left out

Another assay deals with HIV isolate DR1605-400. Kind of assay: Antiretroviral drug response in PHA-PBMC culture, isolate DR1605-400. The conditions noted are these: Human immunodeficiency virus 1, 168 h, high growth capability, no known drug resistance-related mutation, 7 days. The procedure: as §1, with “The activity of 13 synthetic antiretroviral compounds at concentrations ranging from 0.001 to 20 μM was evaluated against HIV isolates with diverse growth capabilities and without any known drug resistance-related mutation. The” for “The”, “Briefly, PHA-PBMCs (1.5 × 10^6 cells) were pelleted at 1000 g for 5 min, resuspended with an HIV preparation (10^6 copies) in 100 µL volume, and incubated at 37 °C for 1 h. To remove unbound and non-infectious viruses, the cells were washed twice with RPMI1640 medium and then cultured in different concentrations of antiretroviral compounds (1 mL). The culture was carried out for 7 days, as described above, for growth capability assessment. All procedures were performed in triplicate.” left out

In a further assay the test system is HIV isolate S1506-064. As to the kind of experiment: Antiretroviral drug response in PHA-PBMC culture, isolate S1506-064. The conditions noted are these: Human immunodeficiency virus 1, 168 h, high growth capability, no known mutation against tenofovir, 7 days. How it is done:
as §1, with “The activity of 13 synthetic antiretroviral compounds at concentrations ranging from 0.001 to 20 μM was evaluated against HIV isolates with diverse growth capabilities and without any known drug resistance-related mutation. The” for “The”, “Briefly, PHA-PBMCs (1.5 × 10^6 cells) were pelleted at 1000 g for 5 min, resuspended with an HIV preparation (10^6 copies) in 100 µL volume, and incubated at 37 °C for 1 h. To remove unbound and non-infectious viruses, the cells were washed twice with RPMI1640 medium and then cultured in different concentrations of antiretroviral compounds (1 mL). The culture was carried out for 7 days, as described above, for growth capability assessment. All procedures were performed in triplicate.” left out

In a further assay the test system is HIV isolate DR1509-397. Kind of assay: Antiretroviral drug response in PHA-PBMC culture, isolate DR1509-397. How it is done: as §1, with “The activity of 13 synthetic antiretroviral compounds at concentrations ranging from 0.001 to 20 μM was evaluated against HIV isolates with diverse growth capabilities and without any known drug resistance-related mutation. The” for “The”, “Briefly, PHA-PBMCs (1.5 × 10^6 cells) were pelleted at 1000 g for 5 min, resuspended with an HIV preparation (10^6 copies) in 100 µL volume, and incubated at 37 °C for 1 h. To remove unbound and non-infectious viruses, the cells were washed twice with RPMI1640 medium and then cultured in different concentrations of antiretroviral compounds (1 mL). The culture was carried out for 7 days, as described above, for growth capability assessment. All procedures were performed in triplicate.” left out
HIV-RNA in the culture medium (140 µL) was extracted using a QIAamp Viral RNA Mini Kit (QIAGEN KK-Japan, Tokyo, Japan) and subjected to quantitative reverse transcription polymerase chain reaction (qRT-PCR). […] The PCR signal was assessed by comparison with a standard curve (encompassing 10^2–10^8 copies/reaction of the in vitro-transcribed RNA transcripts).
The IC50 was calculated using a nonlinear regression curve fit of the dose response curves of each transformed drug concentration and normalized viral load (copies/mL) using GraphPad Prism software (version 8.0). […] The results are expressed as the mean IC90 of three values obtained in triplicate for each isolate.

In another assay the test system is HIV isolate DR1510-726. As to the kind of experiment: Antiretroviral drug response in PHA-PBMC culture, isolate DR1510-726. The conditions noted are these: Human immunodeficiency virus 1, 168 h, isolate with drug resistance-related mutation, 7 days. How it is done: as §1, with “The activity of 13 synthetic antiretroviral compounds at concentrations ranging from 0.001 to 20 μM was evaluated against HIV isolates with diverse growth capabilities and without any known drug resistance-related mutation. The” for “The”, “Briefly, PHA-PBMCs (1.5 × 10^6 cells) were pelleted at 1000 g for 5 min, resuspended with an HIV preparation (10^6 copies) in 100 µL volume, and incubated at 37 °C for 1 h. To remove unbound and non-infectious viruses, the cells were washed twice with RPMI1640 medium and then cultured in different concentrations of antiretroviral compounds (1 mL). The culture was carried out for 7 days, as described above, for growth capability assessment. All procedures were performed in triplicate.” left out

In another assay the test system is HIV isolate DR1606-521. Kind of assay: Antiretroviral drug response in PHA-PBMC culture, isolate DR1606-521. The procedure: as §1, with “The activity of 13 synthetic antiretroviral compounds at concentrations ranging from 0.001 to 20 μM was evaluated against HIV isolates with diverse growth capabilities and without any known drug resistance-related mutation. The” for “The”, “Briefly, PHA-PBMCs (1.5 × 10^6 cells) were pelleted at 1000 g for 5 min, resuspended with an HIV preparation (10^6 copies) in 100 µL volume, and incubated at 37 °C for 1 h. To remove unbound and non-infectious viruses, the cells were washed twice with RPMI1640 medium and then cultured in different concentrations of antiretroviral compounds (1 mL). The culture was carried out for 7 days, as described above, for growth capability assessment. All procedures were performed in triplicate.” left out

[2] abbreviates: Human immunodeficiency virus 1, lowest among the 13 compounds, isolate not specified, read-out: lowest IC90 values.
[3] abbreviates: Human immunodeficiency virus 1, read-out: 90% inhibitory concentration (IC90).

For `COC(=O)N[C@H](C(=O)N[C@@H](Cc1ccccc1)[C@@H](O)CN(Cc1ccc(-c2ccccn2)cc1)NC(=O)[C@@H](NC(=O)OC)C(C)(C)C)C(C)(C)C` [atazanavir], in assay [1], the “suppression of viral yield in vitro” value was “remarkably suppressed the viral yield” and the susceptibility of isolates result is listed as “retained susceptibility with lower IC90 values”. Besides, in assay [1] (setting [2]), the IC90 was 0.0013 ± 0.00112 µM.
Turning to `O=C(NCc1c(F)cc(F)cc1F)c1cn2c(c(O)c1=O)C(=O)N1[C@H]3CC[C@H](C3)O[C@@H]1C2` [bictegravir], the susceptibility of isolates entry in assay [1] was “retained susceptibility with lower IC90 values”.
In the case of `C[C@@H]1CCO[C@H]2Cn3cc(C(=O)NCc4ccc(F)cc4F)c(=O)c(O)c3C(=O)N12` [dolutegravir], in assay [1], the “suppression of viral yield in vitro” value is “remarkably suppressed the viral yield” and the susceptibility of isolates entry is “retained susceptibility with lower IC90 values”. Besides, the IC90 in assay [1] (setting [2]) was found to be 0.0011 ± 0.00072 µM.
Consider `O=C1Nc2ccc(Cl)cc2[C@@](C#CC2CC2)(C(F)(F)F)O1` [efavirenz], for which the IC90 in assay [1] (setting [3]) was found to be 3.65 ± 0.77 µM. In addition, in assay [1], the “IC90 values relative to Cmin / Cmax” value is reported as “close to or above Cmin”. For the same compound, the “IC90 relative to Cmin” value in assay [1] (isolates both with and without any known drug resistance-related mutation (Figure 5)) was “above Cmin”.
With `COc1cc2c(cc1Cc1cccc(Cl)c1F)c(=O)c(C(=O)O)cn2[C@H](CO)C(C)C` [elvitegravir], the susceptibility of isolates entry in assay [1] is reported as “retained susceptibility with lower IC90 values”.
Regarding `Nc1nc(=O)n([C@@H]2CS[C@H](CO)O2)cc1F` [emtricitabine], the IC90 in assay [1] (setting [3]) was found to be 0.68 ± 0.37 µM. Also, the “IC90 values relative to Cmin / Cmax” value in assay [1] is “close to or above Cmin”.
For `Nc1ccn([C@@H]2CS[C@H](CO)O2)c(=O)n1` [lamivudine] the same measures were 6.83 ± 3.96 µM and “close to or above Cmin”.
For `Cc1cccc(C)c1OCC(=O)N[C@@H](Cc1ccccc1)[C@@H](O)C[C@H](Cc1ccccc1)NC(=O)[C@H](C(C)C)N1CCCNC1=O` [lopinavir], in assay [1], the susceptibility of isolates entry is listed as “retained susceptibility with lower IC90 values”.
Same read-out and setting: the entry for `Cc1nnc(C(=O)NC(C)(C)c2nc(C(=O)NCc3ccc(F)cc3)c(O)c(=O)n2C)o1` [raltegravir] is “retained susceptibility with lower IC90 values”.
For `CC(C)OC(=O)[C@H](C)N[P@](=O)(CO[C@H](C)Cn1cnc2c(N)ncnc21)Oc1ccccc1` [tenofovir alafenamide], the IC90 in assay [1] (setting [2]) came out at 0.0003 ± 0.00023 µM. Further, in assay [1], the susceptibility of isolates entry is reported as “retained susceptibility with lower IC90 values”. For the same compound, in assay [1] (isolates with drug resistance-related mutations in tenofovir disoproxil fumarate), the “activity against resistant isolates” value is recorded as “active”.
Turning to `C[C@H](Cn1cnc2c(N)ncnc21)OCP(=O)(O)O` [tenofovir], the IC90 with HIV isolate DR1606-479 was found to be 8.5 ± 0.1 µM; in the assay on HIV isolate DR1605-400 it was 1.4 ± 0.87 µM; with HIV isolate S1506-064 it was 2.8 ± 0.47 µM; in the assay on HIV isolate DR1509-397 (Human immunodeficiency virus 1, 168 h, high growth capability, no known drug resistance-related mutation, PHA-PBMC, 7 days, read-out: IC90), 2 ± 0.4 µM; in the assay on HIV isolate DR1509-397 (Human immunodeficiency virus 1, screened using two additional blood sources (three different blood sources, Figure 2B), read-out: mean IC90) it was 1.9 ± 0.04 µM; in assay [1] (setting [3]), 2.05 ± 0.4 µM. For the same compound, the IC90 in the assay on HIV isolate DR1510-726 was 7.7 ± 0.06 µM; in the assay with HIV isolate DR1606-521 (Human immunodeficiency virus 1, 168 h, isolate with drug resistance-related mutation, PHA-PBMC, 7 days, read-out: IC90), 8.3 ± 0.12 µM; with HIV isolate DR1606-521 (Human immunodeficiency virus 1, tenofovir-resistant isolate, above Cmax (Figure 4), read-out: concentration required to fully suppress the number of viral copies (printed as IC90)), 10 µM. Besides, in the assay on HIV isolate DR1509-397 (tenofovir at 1 μM (close to Cmax)), the “virus production in the presence of drug” value is recorded as “hardly showed the decrease in virus production”. Moreover, the “IC90 values relative to Cmin / Cmax” value in assay [1] is listed as “above Cmax”.
`Cc1cn([C@H]2C[C@H](N=[N+]=[N-])[C@@H](CO)O2)c(=O)[nH]c1=O` [zidovudine]: in assay [1] (setting [2]), the IC90 turned out to be 0.0015 ± 0.00111 µM. The susceptibility of isolates result in assay [1] is “retained susceptibility with lower IC90 values”.
